Values quoted from earlier work in paper PMC4461526 (Bioorganic & medicinal chemistry, 2015).

Experiments:
Human ABCC2 [1] = target: T1, Human ABCC2 (Homo sapiens, UniProt Q92887); conditions: ref 30 (Kidron et al.)
Human ABCC2 [2] = target: T1, Human ABCC2; conditions: ref 30 (Kidron et al.); for IC50: read-out: IC50 (inhibitors of EG)

T1 sequence (Q92887 whole entry): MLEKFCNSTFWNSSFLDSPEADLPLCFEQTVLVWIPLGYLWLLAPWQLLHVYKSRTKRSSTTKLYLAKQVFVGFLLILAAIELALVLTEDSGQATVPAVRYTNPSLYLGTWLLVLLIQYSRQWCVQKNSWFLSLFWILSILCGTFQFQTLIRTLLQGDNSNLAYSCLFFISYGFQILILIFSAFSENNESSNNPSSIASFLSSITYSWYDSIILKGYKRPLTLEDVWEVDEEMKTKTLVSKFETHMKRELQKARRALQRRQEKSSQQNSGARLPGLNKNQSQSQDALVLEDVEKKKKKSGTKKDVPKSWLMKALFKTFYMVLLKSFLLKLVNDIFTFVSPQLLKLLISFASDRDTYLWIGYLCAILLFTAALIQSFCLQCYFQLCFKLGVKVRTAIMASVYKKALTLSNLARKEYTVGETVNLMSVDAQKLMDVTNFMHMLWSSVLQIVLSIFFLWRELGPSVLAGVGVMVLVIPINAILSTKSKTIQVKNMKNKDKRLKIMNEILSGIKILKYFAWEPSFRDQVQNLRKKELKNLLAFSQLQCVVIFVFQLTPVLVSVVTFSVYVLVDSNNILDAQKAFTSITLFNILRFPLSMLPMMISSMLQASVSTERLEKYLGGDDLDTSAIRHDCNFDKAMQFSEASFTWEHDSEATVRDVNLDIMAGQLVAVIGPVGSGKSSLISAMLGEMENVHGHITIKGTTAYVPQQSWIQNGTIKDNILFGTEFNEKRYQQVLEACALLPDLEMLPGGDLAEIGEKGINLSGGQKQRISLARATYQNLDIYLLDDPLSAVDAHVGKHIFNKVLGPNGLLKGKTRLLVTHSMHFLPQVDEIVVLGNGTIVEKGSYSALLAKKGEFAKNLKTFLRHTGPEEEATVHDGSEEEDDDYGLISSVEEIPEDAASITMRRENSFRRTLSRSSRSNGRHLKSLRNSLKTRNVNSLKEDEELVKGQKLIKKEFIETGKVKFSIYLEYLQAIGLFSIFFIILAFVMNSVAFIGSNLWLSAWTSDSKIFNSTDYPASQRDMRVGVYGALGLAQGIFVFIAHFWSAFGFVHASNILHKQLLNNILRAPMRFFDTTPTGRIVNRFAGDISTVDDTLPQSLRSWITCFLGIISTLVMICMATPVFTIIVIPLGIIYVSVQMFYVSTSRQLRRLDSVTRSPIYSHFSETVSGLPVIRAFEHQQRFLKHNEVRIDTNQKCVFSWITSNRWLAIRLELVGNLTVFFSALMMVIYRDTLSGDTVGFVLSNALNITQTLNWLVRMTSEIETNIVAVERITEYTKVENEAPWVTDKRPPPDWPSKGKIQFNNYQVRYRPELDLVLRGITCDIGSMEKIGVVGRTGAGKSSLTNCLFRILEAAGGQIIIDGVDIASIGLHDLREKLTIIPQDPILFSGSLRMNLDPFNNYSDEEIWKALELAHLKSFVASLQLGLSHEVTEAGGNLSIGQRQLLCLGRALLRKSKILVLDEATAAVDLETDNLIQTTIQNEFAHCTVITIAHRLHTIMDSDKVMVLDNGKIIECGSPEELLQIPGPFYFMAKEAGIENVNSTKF

Compound | effect on CDCF transport (Human ABCC2 [1]) | IC50 (Human ABCC2 [2]) | effect on EG transport (Human ABCC2 [2])
CSc1ccc2c(c1)N(CCC1CCCCN1C)c1ccccc1S2 (stereo not shown) [thioridazine] | stimulating | 40 to 60 µM | 
CCCC1O[C@@H]2C[C@H]3[C@@H]4CCC5=CC(=O)C=C[C@]5(C)[C@H]4[C@@H](O)C[C@]3(C)[C@]2(C(=O)CO)O1 (stereo partly shown) [budes-onide] | stimulating | 40 to 60 µM | 
O=C(O)Cc1ccccc1Nc1c(Cl)cccc1Cl [diclofenac] |  |  | stimulators
COc1ccc2c(c1)c(CC(=O)O)c(C)n2C(=O)c1ccc(Cl)cc1 [indomethacin] |  |  | stimulators
C[C@]12CC[C@@H]3c4ccc(OS(=O)(=O)O)cc4CC[C@H]3[C@@H]1CCC2=O [estrone-3-sulfate] |  |  | stimulators
